Data on one compound can be found in ChEMBL document CHEMBL4152336, “Optimization of the first small-molecule relaxin/insulin-like family peptide receptor (RXFP1) agonists: Activation results in an antifibrotic gene expression profile” (Eur J Med Chem, 2018).

The conditions of data set [1]: rat, microsomes.
Description: Half life in rat liver microsomes
The target of a further data set is T1, Relaxin receptor 1 (Homo sapiens, UniProt Q9HBX9).
T1 sequence (Q9HBX9 whole entry): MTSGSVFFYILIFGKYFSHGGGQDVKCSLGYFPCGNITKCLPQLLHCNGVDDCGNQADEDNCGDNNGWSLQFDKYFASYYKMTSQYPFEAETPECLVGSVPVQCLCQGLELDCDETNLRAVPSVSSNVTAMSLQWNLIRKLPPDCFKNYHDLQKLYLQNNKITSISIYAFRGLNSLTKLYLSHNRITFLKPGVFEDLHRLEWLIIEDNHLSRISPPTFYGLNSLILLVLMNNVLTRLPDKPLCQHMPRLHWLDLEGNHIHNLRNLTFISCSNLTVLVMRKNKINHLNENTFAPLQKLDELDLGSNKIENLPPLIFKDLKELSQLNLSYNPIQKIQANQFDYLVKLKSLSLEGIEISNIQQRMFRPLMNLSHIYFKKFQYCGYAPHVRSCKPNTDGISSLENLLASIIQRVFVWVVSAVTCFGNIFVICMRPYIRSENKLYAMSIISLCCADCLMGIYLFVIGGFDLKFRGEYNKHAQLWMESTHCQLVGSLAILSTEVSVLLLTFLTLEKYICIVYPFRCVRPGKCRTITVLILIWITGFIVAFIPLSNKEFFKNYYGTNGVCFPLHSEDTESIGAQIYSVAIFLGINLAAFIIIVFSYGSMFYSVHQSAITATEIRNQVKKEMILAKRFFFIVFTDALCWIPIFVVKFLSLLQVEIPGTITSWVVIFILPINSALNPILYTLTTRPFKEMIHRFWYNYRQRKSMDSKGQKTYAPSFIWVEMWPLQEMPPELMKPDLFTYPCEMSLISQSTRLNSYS
The class given is functional, cell-based, HEK293. The following applies: read-out: EC50.

The test system of a further data set is HEK293. Kind of data set: Cytotoxicity against HEK293 cells assessed as reduction in cell viability by measuring ATP level by ATPlite assay. It counts as cell-based. To be noted: Homo sapiens.
The nature of data set [2]: Aqueous kinetic solubility of the compound in PBS by shake-flask method. It counts as physicochemical. The following applies: PBS; read-out: Kinetic_solubility.
Data set [3] addresses T2, Relaxin receptor 1 (Homo sapiens) (UniProt Q9HBX9).
T2 sequence (whole entry): T1 sequence (Q9HBX9 whole entry)
The class given is functional, cell-based. To be noted: HEK293.

pEC50: −log10 of the molar value. Converted amounts (≈) assume the structure as drawn.

In data set [1], `CCCOc1ccccc1C(=O)Nc1ccccc1C(=O)Nc1cccc(S(=O)(=O)C(F)(F)F)c1` registered a t1/2 of 26.8 min. The pEC50 is 7.28 on Relaxin receptor 1 and 5.03 in the data set with HEK293. For the same compound, in data set [2], the solubility kinetic worked out at 17 µM (≈ 8.61 µg/mL). For the same compound, the Efficacy in data set [3] was found to be 98%.
